In the NIST ThermoML archive (doi:10.1021/acs.jced.7b00335):
Numbers after ± are expanded uncertainties.

Assay: xn = mol fraction of the nth substance listed
Settings: 100 kPa, Liquid; for viscosity: Concentric cylinders viscometry; for mass density: Vibrating tube method

O=Cc1ccccc1 [benzaldehyde] + CCC(C)O
Settings | mass density [kg/m3] | viscosity [mPa·s]
293.15 K, x1 = 0.0813 | 824.7 ± 1 | 3.08 ± 0.12
293.15 K, x1 = 0.1623 | 842.8 ± 1 | 2.62 ± 0.11
293.15 K, x1 = 0.2401 | 860.9 ± 1 | 2.3 ± 0.09
293.15 K, x1 = 0.3517 | 886.9 ± 1 | 1.97 ± 0.08
293.15 K, x1 = 0.4404 | 908.4 ± 1 | 1.791 ± 0.072
293.15 K, x1 = 0.5612 | 938.1 ± 1 | 1.648 ± 0.067
293.15 K, x1 = 0.6519 | 961 ± 1 | 1.576 ± 0.064
293.15 K, x1 = 0.7423 | 984.4 ± 1 | 1.528 ± 0.062
293.15 K, x1 = 0.8511 | 1012.1 ± 1 | 1.506 ± 0.061
293.15 K, x1 = 0.94 | 1032.5 ± 1 | 1.511 ± 0.061
293.15 K, x1 = 1 | 1046.3 ± 1 | 1.52 ± 0.06
298.15 K, x1 = 0.0813 | 821.2 ± 1 | 2.65 ± 0.11
298.15 K, x1 = 0.1623 | 839.5 ± 1 | 2.31 ± 0.09
298.15 K, x1 = 0.2401 | 857.3 ± 1 | 2.027 ± 0.082
298.15 K, x1 = 0.3517 | 883.2 ± 1 | 1.75 ± 0.07
298.15 K, x1 = 0.4404 | 905.3 ± 1 | 1.61 ± 0.07
298.15 K, x1 = 0.5612 | 934.6 ± 1 | 1.487 ± 0.06
298.15 K, x1 = 0.6519 | 957.6 ± 1 | 1.426 ± 0.058
298.15 K, x1 = 0.7423 | 980.2 ± 1 | 1.39 ± 0.06
298.15 K, x1 = 0.8511 | 1007.3 ± 1 | 1.38 ± 0.06
298.15 K, x1 = 0.94 | 1028.6 ± 1 | 1.39 ± 0.06
298.15 K, x1 = 1 | 1041.7 ± 1 | 1.41 ± 0.06
303.15 K, x1 = 0.0813 | 816.3 ± 1 | 2.23 ± 0.09
303.15 K, x1 = 0.1623 | 834.1 ± 1 | 1.984 ± 0.08
303.15 K, x1 = 0.2401 | 852.4 ± 1 | 1.78 ± 0.07
303.15 K, x1 = 0.3517 | 878.1 ± 1 | 1.561 ± 0.063
303.15 K, x1 = 0.4404 | 899.7 ± 1 | 1.438 ± 0.058
303.15 K, x1 = 0.5612 | 929.2 ± 1 | 1.322 ± 0.054
303.15 K, x1 = 0.6519 | 952.1 ± 1 | 1.279 ± 0.052
303.15 K, x1 = 0.7423 | 975.7 ± 1 | 1.255 ± 0.051
303.15 K, x1 = 0.8511 | 1002.1 ± 1 | 1.255 ± 0.051
303.15 K, x1 = 0.94 | 1023.2 ± 1 | 1.277 ± 0.052
303.15 K, x1 = 1 | 1037.1 ± 1 | 1.31 ± 0.05
308.15 K, x1 = 0.0813 | 812.3 ± 1 | 1.897 ± 0.077
308.15 K, x1 = 0.1623 | 829.9 ± 1 | 1.7 ± 0.07
308.15 K, x1 = 0.2401 | 848.1 ± 1 | 1.55 ± 0.06
308.15 K, x1 = 0.3517 | 873.9 ± 1 | 1.383 ± 0.056
308.15 K, x1 = 0.4404 | 895.3 ± 1 | 1.284 ± 0.052
308.15 K, x1 = 0.5612 | 924.7 ± 1 | 1.194 ± 0.048
308.15 K, x1 = 0.6519 | 947.6 ± 1 | 1.156 ± 0.047
308.15 K, x1 = 0.7423 | 971.1 ± 1 | 1.139 ± 0.046
308.15 K, x1 = 0.8511 | 997 ± 1 | 1.149 ± 0.047
308.15 K, x1 = 0.94 | 1019 ± 1 | 1.182 ± 0.048
308.15 K, x1 = 1 | 1032.4 ± 1 | 1.22 ± 0.05
313.15 K, x1 = 0.0813 | 807.8 ± 1 | 1.636 ± 0.066
313.15 K, x1 = 0.1623 | 825.5 ± 1 | 1.49 ± 0.06
313.15 K, x1 = 0.2401 | 843.7 ± 1 | 1.366 ± 0.055
313.15 K, x1 = 0.3517 | 869.3 ± 1 | 1.23 ± 0.05
313.15 K, x1 = 0.4404 | 890.8 ± 1 | 1.146 ± 0.047
313.15 K, x1 = 0.5612 | 920.3 ± 1 | 1.079 ± 0.044
313.15 K, x1 = 0.6519 | 944.4 ± 1 | 1.05 ± 0.04
313.15 K, x1 = 0.7423 | 966.7 ± 1 | 1.038 ± 0.042
313.15 K, x1 = 0.8511 | 993.4 ± 1 | 1.057 ± 0.043
313.15 K, x1 = 0.94 | 1014.1 ± 1 | 1.1 ± 0.05
313.15 K, x1 = 1 | 1027.9 ± 1 | 1.15 ± 0.05
318.15 K, x1 = 0.0813 | 803 ± 1 | 1.388 ± 0.056
318.15 K, x1 = 0.1623 | 820.8 ± 1 | 1.265 ± 0.051
318.15 K, x1 = 0.2401 | 839 ± 1 | 1.172 ± 0.048
318.15 K, x1 = 0.3517 | 864.6 ± 1 | 1.068 ± 0.043
318.15 K, x1 = 0.4404 | 886.1 ± 1 | 1.01 ± 0.04
318.15 K, x1 = 0.5612 | 915.7 ± 1 | 0.966 ± 0.039
318.15 K, x1 = 0.6519 | 940 ± 1 | 0.95 ± 0.04
318.15 K, x1 = 0.7423 | 962.1 ± 1 | 0.948 ± 0.039
318.15 K, x1 = 0.8511 | 987.7 ± 1 | 0.979 ± 0.04
318.15 K, x1 = 0.94 | 1009.3 ± 1 | 1.026 ± 0.042
318.15 K, x1 = 1 | 1023.4 ± 1 | 1.09 ± 0.04
323.15 K, x1 = 0.0813 | 798.9 ± 1 | 1.215 ± 0.049
323.15 K, x1 = 0.1623 | 816.4 ± 1 | 1.128 ± 0.046
323.15 K, x1 = 0.2401 | 834.6 ± 1 | 1.056 ± 0.043
323.15 K, x1 = 0.3517 | 860 ± 1 | 0.977 ± 0.04
323.15 K, x1 = 0.4404 | 881.5 ± 1 | 0.932 ± 0.038
323.15 K, x1 = 0.5612 | 911 ± 1 | 0.895 ± 0.036
323.15 K, x1 = 0.6519 | 933.9 ± 1 | 0.882 ± 0.036
323.15 K, x1 = 0.7423 | 956 ± 1 | 0.887 ± 0.036
323.15 K, x1 = 0.8511 | 982.1 ± 1 | 0.913 ± 0.037
323.15 K, x1 = 0.94 | 1003.9 ± 1 | 0.962 ± 0.039
323.15 K, x1 = 1 | 1019.1 ± 1 | 1.03 ± 0.04
